# Laboratory results taken from US10111435B2, “Herbicidal compositions containing N-(1,3,4-oxadiazol-2-yl)-aryl carboxylic acid amides” (BAYER CROPSCIENCE AKTIENGESELLSCHAFT, priority 2013, dated 2018).
# Experiments:
# Format in all cases: in vivo
# Eleusine indica (ELEIN) = experiment: greenhouse post-emergence herbicidal efficacy against ELEIN
# Protocol: (§1) All trials whose results are shown were conducted in a greenhouse by the methodology specified below. The effect of the inventive herbicidal compositions was examined on the following harmful plants 14 and 21 days after application:
# (§2) Echinochloa crus-galli (ECHCG), Eleusine indica (ELEIN), Setaria viridis (SETVI), Amaranthus retroflexus (AMARE), Chenopodium album (CHEAL), Kochia scoparia (KCHSC), Solanum nigrum (SOLNI), Avena fatua (AVEFA), Bromus sterilis (BROST), Lolium multiflorum (LOLMU), Phalaris minor (PHAMI), Poa annua (POAAN), Galium aparine (GALAP), Matricaria inodora (MATIN) and Polygonum convolvulus (POLCO).
# (§3) The harmful plant seeds were sown in pots (diameter 8 cm) with sandy loam soil and germinated under optimal conditions. The inventive herbicidal compositions or the active ingredients alone were applied post-emergence to the planted pots with a spray volume of 300 L/ha. The trial was conducted in a greenhouse under optimum growth conditions. The herbicidal effects were assessed visually by comparison of untreated and treated plants. The percentages mean: 0%=no effects, 100%=the plants die off completely). The percentages are used to calculate interactions between individual treatments and combination treatments according to S. R. Colby, Weeds 15, pages 20 to 22 (1967).
# (§4) The abbreviations mean: • a.i.=active ingredient • E^C=expected value according to Colby (E^C=A+B−A×B/100) • Diff: =difference (%) of measured value from expected value (%) (measured value minus expected value)
# (§5) Assessment: • measured value E is greater than E^C:->synergism (+ diff.) • measured value E equals E^C:->additive effect • measured value E is smaller than E^C:->antagonism(− diff.)
# Kochia scoparia (KCHSC) = experiment: greenhouse post-emergence herbicidal efficacy against KCHSC; conditions: 4 g of a.i./ha
# Protocol: as §1, §2, §3, §4, §5
# [1] = system: Matricaria inodora (MATIN); experiment: greenhouse post-emergence herbicidal efficacy against MATIN
# Protocol: as §1, §2
# as §3, with “completely).” for “completely). The percentages are used to calculate interactions between individual treatments and combination treatments according to S. R. Colby, Weeds 15, pages 20 to 22 (1967).”
# as §4, §5
# Galium aparine (GALAP) = experiment: greenhouse post-emergence herbicidal efficacy against GALAP
# Protocol: as §1, §2
# as §3, with “completely).” for “completely). The percentages are used to calculate interactions between individual treatments and combination treatments according to S. R. Colby, Weeds 15, pages 20 to 22 (1967).”
# as §4, §5
# Setaria viridis (SETVI) = experiment: greenhouse post-emergence herbicidal efficacy against SETVI
# Protocol: as §1, §2, §3, §4, §5
# Bromus sterilis (BROST) = experiment: greenhouse post-emergence herbicidal efficacy against BROST
# Protocol: as §1, §2
# as §3, with “completely).” for “completely). The percentages are used to calculate interactions between individual treatments and combination treatments according to S. R. Colby, Weeds 15, pages 20 to 22 (1967).”
# as §4, §5
# [2] = system: Polygonum convolvulus (POLCO); experiment: greenhouse post-emergence herbicidal efficacy against POLCO
# Protocol: as §1, §2
# as §3, with “completely).” for “completely). The percentages are used to calculate interactions between individual treatments and combination treatments according to S. R. Colby, Weeds 15, pages 20 to 22 (1967).”
# as §4, §5
# Poa annua (POAAN) = experiment: greenhouse post-emergence herbicidal efficacy against POAAN
# Protocol: as §1, §2
# as §3, with “completely).” for “completely). The percentages are used to calculate interactions between individual treatments and combination treatments according to S. R. Colby, Weeds 15, pages 20 to 22 (1967).”
# as §4, §5
# Phalaris minor (PHAMI) = experiment: greenhouse post-emergence herbicidal efficacy against PHAMI
# Protocol: as §1, §2
# as §3, with “completely).” for “completely). The percentages are used to calculate interactions between individual treatments and combination treatments according to S. R. Colby, Weeds 15, pages 20 to 22 (1967).”
# as §4, §5
# [3] = system: Lolium multiflorum (LOLMU); experiment: greenhouse post-emergence herbicidal efficacy against LOLMU
# Protocol: as §1, §2
# as §3, with “completely).” for “completely). The percentages are used to calculate interactions between individual treatments and combination treatments according to S. R. Colby, Weeds 15, pages 20 to 22 (1967).”
# as §4, §5
# Avena fatua (AVEFA) = experiment: greenhouse post-emergence herbicidal efficacy against AVEFA
# Protocol: as §1, §2
# as §3, with “completely).” for “completely). The percentages are used to calculate interactions between individual treatments and combination treatments according to S. R. Colby, Weeds 15, pages 20 to 22 (1967).”
# as §4, §5
# [4] = system: Chenopodium album (CHEAL); experiment: greenhouse post-emergence herbicidal efficacy against CHEAL
# Protocol: as §1, §2, §3, §4, §5
# [5] = system: Echinochloa crus-galli (ECHCG); experiment: greenhouse post-emergence herbicidal efficacy against ECHCG
# Protocol: as §1, §2, §3, §4, §5
# Solanum nigrum (SOLNI) = experiment: greenhouse post-emergence herbicidal efficacy against SOLNI; conditions: 21 days after application
# Protocol: as §1, §2, §3, §4, §5
# [6] = system: Amaranthus retroflexus (AMARE); experiment: greenhouse post-emergence herbicidal efficacy against AMARE
# Protocol: as §1, §2, §3, §4, §5
# DIGSA = experiment: greenhouse post-emergence herbicidal efficacy against DIGSA
# Protocol: as §1, §3, §4, §5
# [7] = 14 days after application, 4 g of a.i./ha
# [8] = 21 days after application, 4 g of a.i./ha
# [9] = 14 days after application, 5 g of a.i./ha
# [10] = 21 days after application, g of a.i./ha: A1-3 5, pinoxaden 20
# [11] = 21 days after application, g of a.i./ha: A1-3 20, pinoxaden 5
# [12] = 21 days after application, g of a.i./ha: A1-3 20, pinoxaden 20
# [13] = 21 days after application, 1 g of a.i./ha
# [14] = 14 days after application, 20 g of a.i./ha
# [15] = 21 days after application, g of a.i./ha: A1-34 50, iodosulfuron-methyl-sodium 0.5
# [16] = 14 days after application, 50 g of a.i./ha
# [17] = 21 days after application, g of a.i./ha: A1-34 200, iodosulfuron-methyl-sodium 2
# [18] = 21 days after application, 25 g of a.i./ha
# [19] = 21 days after application, g of a.i./ha: A1-34 50, iodosulfuron-methyl-sodium 2
# [20] = 14 days after application, 200 g of a.i./ha
# [21] = 14 days after application, 2 g of a.i./ha
# [22] = 21 days after application, 2 g of a.i./ha
# [23] = 14 days after application, 2.5 g of a.i./ha
# [24] = 14 days after application, 10 g of a.i./ha
# [25] = 21 days after application, g of a.i./ha: A1-55 2.5, glufosinate-ammonium 25
# [26] = 21 days after application, g of a.i./ha: A1-55 2.5, glufosinate-ammonium 100
# [27] = 21 days after application, g of a.i./ha: A1-55 10, glufosinate-ammonium 25
# [28] = 21 days after application, g of a.i./ha: A1-55 10, glufosinate-ammonium 100
# [29] = 14 days after application, 0.5 g of a.i./ha
# [30] = 21 days after application, g of a.i./ha: A2-1 12.5, fluroxypyr 20
# [31] = 21 days after application, g of a.i./ha: A2-1 12.5, fluroxypyr 80
# [32] = 21 days after application, g of a.i./ha: A2-1 50, fluroxypyr 20
# [33] = 21 days after application, g of a.i./ha: A2-1 50, fluroxypyr 80
# [34] = 14 days after application, 12.5 g of a.i./ha
compound,measurement,setting,value
COCc1nnc(NC(=O)c2ccc(C(F)(F)F)c(S(C)(=O)=O)c2C)o1 [A1-3],Efficacy,Eleusine indica (ELEIN); [7],50%
same,Efficacy,Eleusine indica (ELEIN); [8],20%
same,Efficacy,Kochia scoparia (KCHSC); 14 days after application,40%
same,Efficacy,Kochia scoparia (KCHSC); 21 days after application,20%
same,Efficacy,[1]; [9],30%
same,Efficacy,Galium aparine (GALAP); [9],40%
same,Efficacy,Galium aparine (GALAP); [10],5%
same,Efficacy,Galium aparine (GALAP); [11],5%
same,Efficacy,Galium aparine (GALAP); [12],5%
same,Efficacy,Setaria viridis (SETVI); [8],20%
same,Efficacy,Setaria viridis (SETVI); [13],10%
same,Efficacy,Bromus sterilis (BROST); [9],0%
same,Efficacy,Bromus sterilis (BROST); [14],5%
same,Efficacy,[2]; [9],0%
same,Efficacy,[2]; [14],10%
same,Efficacy,[2]; [11],5%
same,Efficacy,[2]; [12],5%
same,Efficacy,Poa annua (POAAN); [9],0%
same,Efficacy,Poa annua (POAAN); [14],5%
same,Efficacy,Poa annua (POAAN); [10],0%
same,Efficacy,Poa annua (POAAN); [12],3%
same,Efficacy,Phalaris minor (PHAMI); [9],0%
same,Efficacy,Phalaris minor (PHAMI); [14],20%
same,Efficacy,Phalaris minor (PHAMI); [11],5%
same,Efficacy,Phalaris minor (PHAMI); [12],5%
same,Efficacy,[3]; [9],0%
same,Efficacy,[3]; [10],0%
same,Efficacy,[3]; [11],5%
same,Efficacy,Avena fatua (AVEFA); [9],0%
same,Efficacy,Avena fatua (AVEFA); [14],0%
same,Efficacy,[4]; [13],20%
same,Efficacy,"[5]; 14 days after application, 1 g of a.i./ha",0%
same,Efficacy,[5]; [7],40%
same,Efficacy,[5]; [8],10%
same,Efficacy,[5]; [13],0%
Cc1c(C(=O)Nc2nnc(C3CC3)o2)ccc(C(F)(F)F)c1[S+](C)[O-] (stereo not shown) [A1-34],Efficacy,Solanum nigrum (SOLNI); 25 g of a.i./ha,10%
same,Efficacy,[1]; [15],50%
same,Efficacy,Galium aparine (GALAP); [16],50%
same,Efficacy,Galium aparine (GALAP); [15],20%
same,Efficacy,Galium aparine (GALAP); [17],40%
same,Efficacy,[6]; [18],30%
same,Efficacy,"[6]; 21 days after application, 100 g of a.i./ha",50%
same,Efficacy,Bromus sterilis (BROST); [16],10%
same,Efficacy,Bromus sterilis (BROST); [19],15%
same,Efficacy,Bromus sterilis (BROST); [17],35%
same,Efficacy,[2]; [20],30%
same,Efficacy,[2]; [15],0%
same,Efficacy,[2]; [19],0%
same,Efficacy,Poa annua (POAAN); [20],85%
same,Efficacy,Phalaris minor (PHAMI); [20],60%
same,Efficacy,[3]; [16],5%
same,Efficacy,[3]; [20],30%
same,Efficacy,Avena fatua (AVEFA); [17],5%
same,Efficacy,[4]; [18],70%
Cc1nnc(NC(=O)c2ccc(C(F)(F)F)c(-n3cccn3)c2Cl)o1 [A1-55],Efficacy,Eleusine indica (ELEIN); [21],40%
same,Efficacy,Eleusine indica (ELEIN); [22],30%
same,Efficacy,[1]; [23],0%
same,Efficacy,[1]; [24],30%
same,Efficacy,[1]; [25],0%
same,Efficacy,[1]; [26],0%
same,Efficacy,[1]; [27],20%
same,Efficacy,[1]; [28],20%
same,Efficacy,Galium aparine (GALAP); [23],0%
same,Efficacy,Galium aparine (GALAP); [24],30%
same,Efficacy,Galium aparine (GALAP); [27],15%
same,Efficacy,Setaria viridis (SETVI); [21],40%
same,Efficacy,Setaria viridis (SETVI); [22],30%
same,Efficacy,[6]; [29],20%
same,Efficacy,"[6]; 21 days after application, 0.5 g of a.i./ha",10%
same,Efficacy,Bromus sterilis (BROST); [23],5%
same,Efficacy,Bromus sterilis (BROST); [26],0%
same,Efficacy,Bromus sterilis (BROST); [27],10%
same,Efficacy,[2]; [23],0%
same,Efficacy,[2]; [24],0%
same,Efficacy,[2]; [27],0%
same,Efficacy,[2]; [28],0%
same,Efficacy,Poa annua (POAAN); [23],5%
same,Efficacy,Poa annua (POAAN); [24],20%
same,Efficacy,Poa annua (POAAN); [26],0%
same,Efficacy,Poa annua (POAAN); [28],0%
same,Efficacy,Phalaris minor (PHAMI); [23],0%
same,Efficacy,Phalaris minor (PHAMI); [24],25%
same,Efficacy,Phalaris minor (PHAMI); [25],0%
same,Efficacy,Phalaris minor (PHAMI); [26],0%
same,Efficacy,Phalaris minor (PHAMI); [27],5%
same,Efficacy,Phalaris minor (PHAMI); [28],5%
same,Efficacy,[3]; [23],0%
same,Efficacy,[3]; [24],15%
same,Efficacy,[3]; [26],0%
same,Efficacy,[3]; [28],10%
same,Efficacy,DIGSA; [29],20%
same,Efficacy,DIGSA; [22],30%
same,Efficacy,Avena fatua (AVEFA); [23],0%
same,Efficacy,Avena fatua (AVEFA); [26],0%
same,Efficacy,Avena fatua (AVEFA); [28],10%
same,Efficacy,[4]; [21],70%
Cc1nnc(NC(=O)c2ccc(C(F)(F)F)nc2C)o1 [A2-1],Efficacy,Solanum nigrum (SOLNI); 1 g of a.i./ha,10%
same,Efficacy,Eleusine indica (ELEIN); [8],60%
same,Efficacy,Kochia scoparia (KCHSC); 21 days after application,40%
same,Efficacy,[1]; [30],80%
same,Efficacy,[1]; [31],80%
same,Efficacy,[1]; [32],85%
same,Efficacy,[1]; [33],85%
same,Efficacy,Setaria viridis (SETVI); [8],20%
same,Efficacy,Bromus sterilis (BROST); [34],0%
same,Efficacy,Bromus sterilis (BROST); [33],0%
same,Efficacy,[2]; [16],70%
same,Efficacy,[2]; [30],20%
same,Efficacy,[2]; [32],60%
same,Efficacy,Poa annua (POAAN); [34],15%
same,Efficacy,Poa annua (POAAN); [30],0%
same,Efficacy,Poa annua (POAAN); [31],0%
same,Efficacy,Phalaris minor (PHAMI); [34],15%
same,Efficacy,Phalaris minor (PHAMI); [31],0%
same,Efficacy,Phalaris minor (PHAMI); [33],15%
same,Efficacy,[3]; [34],0%
same,Efficacy,[3]; [16],0%
same,Efficacy,[3]; [33],0%
same,Efficacy,Avena fatua (AVEFA); [34],0%
same,Efficacy,Avena fatua (AVEFA); [16],0%
same,Efficacy,Avena fatua (AVEFA); [31],0%
same,Efficacy,Avena fatua (AVEFA); [33],0%
same,Efficacy,[5]; [7],50%
same,Efficacy,[5]; [8],40%
